Data on one molecule can be found in patent US12336977B2, “Nitenin analogue compounds and their use in the treatment of chronic and acute pain” (SEA4US-BIOTECNOLOGIA E RECURSOS MARINHOS, LDA., priority 2019, dated 2025).

Each structure is given as a SMILES string.

One data set has as its target T1, hKv1.6 (Homo sapiens, UniProt P17658).
T1 construct: expressed in transfected cells; host or cells: CHO-K1
The experiment in a line: voltage-clamp of K+ currents in CHO-K1 cells expressing hKv1.6. The class given is cell-based. An excerpt:
(§1) As measure of Ifast, peak current was used, whereas, as a measure of Islow, the current value was obtained at the end of the command pulse (see FIG. 1). Values are expressed as mean±S.E.M. For Islow, a dual phase relationship can be observed. […] Kv1.3 channel is the most sensitive channel (around 6-fold more sensitive in comparison to the “next most sensitive one”, the Kv1.2) Kv1.2, Kv1.1 and Kv1.6 show similar, intermediate sensitivities to nitenin. In opposition, Kv1.4 is the less sensitive (˜31 times less sensitive).
(§2) Additionally, drug sensitivity to different voltage-activated channels was assessed by studying the drug effect on currents recorded from chinese hamster ovary (CHO) cells stably transfected with different human Kv channel subunits (Kv1.1, Kv1.2, Kv1.3, Kv1.4 and Kv1.6).
(§3) The higher sensitivity of nitenin to Islow (rather than Ifast) and the nature of the nitenin sensitive current (see nitenin sensitive current in FIG. 1.b) urged to understand which K^+ channel(s) do underline Islow. By considering which Kv channel subunits are known to be expressed in DRG, and the biophysical nature of the nitenin-sensitive current, nitenin was tested on whole-cell currents recorded from CHO cells expressing hKv1.1, hKv1.2, hKv1.3, hKv1.4 and hKv1.6. […] Current inhibition was measured at the end of the 1000 ms pulse.

A further data set has as its system STZ rats. The data set can be described thus: diabetic neuropathic pain rat model STZ, von Frey filaments. The class given is in vivo. To be noted: I.V. 1 μg/mL of blood; 60 days after STZ. As to the method:
[…]
(§4) For efficacy studies, nociception was assessed in all animals from all pain models by regular behavioural monitoring, by quantifying the sensitivity to mechanical stimuli with Von Frey filaments, and consequently reflecting hyperalgesia when hypersensitive. […] Intraperitoneal administration was tested in CFA rats (23 days after CFA injection), with 10 times the nitenin quantity administered by I.V. injections. […] Oral administration of nitenin through stomach gavages (endogastric), with 100 times the quantity administered by I.V. injections, was tested in CCI rats (31 days after surgery). […]

Data set [1] concerns K+ currents of small diameter dorsal-root ganglion neuron. The data set can be described thus: voltage dependence of steady state of inactivation of K+ currents in sdDRGn. The class given is cell-based, rat. The source says:
One can observe a shift to hyperpolarized values during the nitenin treatment. The relationships were better fit with the sum of two Boltzmann functions, showing that in both conditions there are two components: one more hyperpolarized component (component 1) and one other more depolarized component (component 2).
One can observe a shift to hyperpolarized values during the treatment with the compound of formula VI. The relationships were better fit with the sum of two Boltzmann functions, showing that in both conditions there are two components: one more hyperpolarized component (component 1) and one other more depolarized component (component 2).
One can observe a shift to hyperpolarized values during the treatment with the compound of formula VII. The relationships were better fit with the sum of two Boltzmann functions, showing that in both conditions there are two components: one more hyperpolarized component (component 1) and one other more depolarized component (component 2).
One can observe a shift to hyperpolarized values during the treatment with the compound of formula VIII. The relationships were better fit with the sum of two Boltzmann functions, showing that in both conditions there are two components: one more hyperpolarized component (component 1) and one other more depolarized component (component 2).
For the electrophysiological recordings of the ex vivo material, voltage-clamp recordings were performed on neurons isolated from rat DRGs (and TGs). Recordings were performed from the soma that often contained the proximal fraction of axon, 1 hour after the end of the cell isolation process (includes enzymatic and mechanical treatment).

Data set [2] concerns isolated rat atria and isolated rat ventricles. The data set can be described thus: ex vivo rat heart preparations. To be noted: up to 10 μM.
The next data set concerns the target T2, hKv1.1 (Homo sapiens, UniProt Q09470).
T2 construct: expressed in transfected cells; host or cells: CHO-K1
The experiment in a line: voltage-clamp of K+ currents in CHO-K1 cells expressing hKv1.1. The class given is cell-based.
Text: as §1, §2, §3

In data set [3] the test system is Naïve Wistar control rats. The data set can be described thus: naive Wistar controls, von Frey filaments. Format: in vivo, rat. To be noted: I.V. injections. As to the method:
[…]
as §4

The subject of another data set is anesthetized Wistar rats. The experiment in a line: in vivo ECG recordings of anesthetized Wistar rats. On the set-up: species or system rat. To be noted: intravenous 60 μg/Kg.

T1 sequence (P17658 whole entry): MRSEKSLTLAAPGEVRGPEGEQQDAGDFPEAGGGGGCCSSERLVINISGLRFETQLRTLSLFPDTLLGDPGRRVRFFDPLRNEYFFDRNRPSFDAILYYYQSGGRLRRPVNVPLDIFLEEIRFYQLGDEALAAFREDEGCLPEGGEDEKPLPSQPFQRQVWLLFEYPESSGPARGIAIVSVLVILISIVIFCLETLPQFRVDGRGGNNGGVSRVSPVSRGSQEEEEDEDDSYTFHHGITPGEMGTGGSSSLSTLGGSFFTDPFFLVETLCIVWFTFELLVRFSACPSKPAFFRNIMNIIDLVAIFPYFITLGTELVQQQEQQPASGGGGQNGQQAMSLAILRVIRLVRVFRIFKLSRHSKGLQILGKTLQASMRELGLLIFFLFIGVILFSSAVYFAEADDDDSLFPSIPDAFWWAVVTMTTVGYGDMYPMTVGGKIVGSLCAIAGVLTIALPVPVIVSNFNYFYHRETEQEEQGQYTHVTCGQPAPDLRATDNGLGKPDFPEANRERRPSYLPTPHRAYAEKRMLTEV
T2 sequence (Q09470 whole entry): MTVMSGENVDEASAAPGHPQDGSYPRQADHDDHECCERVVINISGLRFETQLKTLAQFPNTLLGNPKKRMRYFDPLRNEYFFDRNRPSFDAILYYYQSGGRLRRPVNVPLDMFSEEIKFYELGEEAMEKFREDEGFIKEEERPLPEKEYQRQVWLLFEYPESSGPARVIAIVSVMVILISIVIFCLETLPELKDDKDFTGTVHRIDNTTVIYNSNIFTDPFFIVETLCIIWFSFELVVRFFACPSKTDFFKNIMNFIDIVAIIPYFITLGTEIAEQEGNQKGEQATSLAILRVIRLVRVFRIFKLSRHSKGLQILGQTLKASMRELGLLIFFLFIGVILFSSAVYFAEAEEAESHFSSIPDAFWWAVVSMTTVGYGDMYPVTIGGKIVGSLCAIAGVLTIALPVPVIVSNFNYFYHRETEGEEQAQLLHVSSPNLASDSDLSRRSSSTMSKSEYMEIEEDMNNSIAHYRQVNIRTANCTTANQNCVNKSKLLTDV

`C/C(=C\C1C/C(=C/CCc2ccoc2)C(=O)O1)CCCc1ccoc1` (stereo not drawn) [nitenin]: the “lower sensitivity of hKv1.6 relative to Kv1.3” value at hKv1.6 is roughly 6 ×. Moreover, the “mechanical sensitivity in the hypersensitive paws” value with STZ rats was “decrease of mechanical sensitivity”. The “effect on I-V curves of the voltage dependence of inactivation” value in data set [1] is recorded as “shifts to more hyperpolarised potentials”. Moreover, the “Vh2 (voltage of half maximum current, component 2) of steady state inactivation” value in data set [1] (nitenin 0.1 μg/ml, 0.29 μM, neuron from injured side of CCI rat 28 days after surgery, control −26.3) is −47.0 mV. Also, the “Vh1 (voltage of half maximum current, component 1) of steady state inactivation” value in data set [1] (nitenin 0.1 μg/ml, 0.29 μM, neuron from injured side of CCI rat 28 days after surgery, control −73.3) is given as −95.3 mV. For the same molecule, the sinus heart rate result in data set [2] (ex vivo) is reported as “does not change”. The atrial inotropy entry in data set [2] (isolated rat atria) is “does not change”. Besides, the “right ventricular (RV) inotropy” value in data set [2] (isolated rat ventricles) is reported as “does not change”. Besides, the “lower sensitivity of hKv1.1 relative to Kv1.3” value at hKv1.1 is on record as roughly 6 ×. In data set [3], the “sensitivity scores, both paws” value is recorded as “never any change in sensitivity scores”. Moreover, in the data set with anesthetized Wistar rats, the “arrhythmia or pro-arrhythmic phenomena (ECG)” value was “neither induced arrhythmia or any pro-arrhythmic phenomena”; the “sinus rhythm and heart rate (ECG)” value was “did not change”.
